Reference: US10716769B2 (GUANGZHOU JTREAT BIOSCI. LTD., priority 2015, dated 2020)

What was measured:
HPV 6/11 Virus = assay: HPV detection via fluorescence quantitative PCR in genital warts tissue homogenate; design: species or system human papillomavirus; conditions: for HPV 6/11 virus detection, in words: 24 hours after addition into the tissue homogenate of genital warts; for HPV 6/11 Virus: genital warts tissue homogenate, 37° C., 24 hours, FQ-PCR
Excerpt: (§1) The aforesaid compounds and/or compositions containing the same are effective in killing and inhibiting HPV type 6/11 and type 16/18, which can be used for the preparation of drugs for preventing and treating viral infection of HPV, preventing and treating genital warts, flat warts, common warts, vaginitis, cervicitis and cervical erosion, cervical cancer, esophageal cancer and other cancers caused by HPV. The present invention observes the effect of active ingredients and products by the detection of the change in the amount of the HPV virus through the real-time quantitative PCR. Such method has been applied in several publications (Youling C A I, et al., Chinese STD/AIDS, 2002, 8: 2,108; Yuansheng W U, Ruijiang F A N, et al., Practical Application of Integrated Chinese and Western Medicine in Clinics, 2003, 3: 2,1).
(§2) The microemulsion obtained in example 1 is used as a test sample and saline for blank control.
(§3) The standard clinical genital warts specimens from a variety of patients after being cut off are washed with saline for removing bloods, and are cut into pieces under aseptic conditions, added with saline in 3 times of their volumes to be uniformly mixed, grinded into homogenate and placed at −40° C. for use.
(§4) Each test sample drug microemulsion and the saline of 50 μl for each are respectively added with 50 μl the genital warts tissue homogenate, and incubated at 37° C. for 24 hours; tests are performed according to the operation procedure provided by the HPV6, 11 and 16, 18 type FQ-PCR diagnostic kits provided by Da'an Gene Diagnostic Center. 0.2 ml of DNA extracted by the conventional alkaline lysis method is put into the thin-walled reaction tube, and simultaneously added with primers, F-PROBE, DNTP, DNA polymerase, buffers and the like in a certain concentration; ABI PRISM™ 7700 fluorescence quantitative PCR amplifier is used to repeat 40 circulations each with 45 s at 93° C. and 120 s at 55° C. after predegeneration at 93° C. for 2 mins; the quantitative results are automatically analyzed by the computer software to calculate the quantitative results of the initial copy number. The data are shown in Table 2 (completed by Da'an Gene Clinical Test Center).

HPV16/18 = assay: as above; design: species or system human papillomavirus; conditions: for HPV16/18 virus detection, in words: 24 hours after addition into the tissue homogenate of genital warts; for HPV16/18: genital warts tissue homogenate, 37° C., 24 hours, FQ-PCR
Excerpt: as §1, §2, §3, §4

[1] = system: human cervical cancer cell line (HeLa); assay: MTT in vitro tumor cell inhibition; format: cell-based; conditions: 3 days
Excerpt: (§5) An effective amount of the above compounds and/or the compositions containing the same used as an active ingredient have an effect on inhibiting the tumor cells. The present invention detects the inhibitory effect of the hydroxy-substituted benzophenone compounds on the proliferation of the in vitro cultured human tumor cells by the methylthiazolyl tetrazolium method.
(§6) The method is used to detect cell viability. […] Particles can be dissolved by dimethyl sulfoxide (DMSO) isopropyl alcohol or 10% acidified SDS (sodium dodecyl sulfate), and a microplate reader is used to measure the OD value at A570 wavelength, which indirectly reflects the number of live cells. The method is used for detection of the cytokines bioactivity, as well as anti-tumor drugs and tumor radiosensitivity and cytotoxicity test, and has the characteristics of being simple, fast, economical, sensitive and accurate and having good reproducibility and no need to use radionuclides. This method has been widely used in screening preclinical anticancer drugs and detecting the drug sensitivity of fresh tumor cells. The method is as below:
(§7) (1) The tumor cell suspension prepared by 0.25% of trypsin digestion and adjusted to a cell concentration of 10^5/ml with RPMI1640 containing 10% fetal calf serum is added to a 96-well plate with 100 μl for each well, cultured 24 hours, and then different dosages of drugs are added with 100 μl/well, for which, the negative control groups, positive control groups and withering wells are set, and 4 parallel wells are set for each group.
(§8) (2) They are continually cultured in incubator containing 5% of CO2 at 37° C. for 24 to 48 hours. MTT solution (5 g/L) is added to each well before the termination of the experiment. The OD value at A570 nm is detected by microplate reader. The OD value at A570 of the negative group without the addition of drugs is taken as a control. The cell survival rate and cell inhibition rate of drugs are calculated according to the following formula: Cell survival rate=(OD value of test group/OD value of control group)×100% Cell inhibition rate (%)=(OD value of the control group−OD value of the test group/(OD value of the control group−OD value of the blank group)
(§9) 1. Tumor cell lines: human glioma cell line (U251), human colon cancer cell line (LOVO), human hepatoma cell line (HepG2), human lung cancer cell line (PC84045), human endometrial carcinoma cell line (JEC), human renal carcinoma (GRC), human gastric cancer cell line (MCG804), human cervical cancer cell line (HeLa), human hepatocellular carcinoma cell line (BEL-7402) and human umbilical vein endothelial cell line (ECV304) purchased from Animal Experimental Center of Zhongshan Medical College, and preserved by the present laboratory.
(§10) The tumor cell lines are cultured in RPMI-1640 medium containing 15% of the newborn bovine serum in a conventional manner, placed in the humidification incubator containing 5% of CO2 for being cultured at 37° C., and are observed for growth by an inverted microscope. A subculture is conducted every about 3-5 days, the cells in logarithmic growth phase are adopted to be digested with 0.25% of trypsin, and the serum-free RPMI-1640 medium is used for culturing the cell suspension; the blood counting plate makes counting, the trypan blue exclusion tests the cell activity, and the cell viability>95% is used for formal tests.
(§11) Liquid preparation: the compounds are labeled with the codes respectively, DMSO is used to dissolve each compound, the bacterial filter is used to remove bacteria, and each compound is prepared into 10^−4 g/ml, 10^−5 g/ml, 10^−6 g/ml and preserved at 4° C. for use. […]

[2] = system: human colon cancer cell line (LOVO); assay: MTT in vitro tumor cell inhibition; format: cell-based; conditions: 3 days
Excerpt: as §5, §6, §7, §8, §9, §10, §11

[3] = system: human endometrial carcinoma cell line (JEC); assay: MTT in vitro tumor cell inhibition; format: cell-based; conditions: 3 days
Excerpt: as §5, §6, §7, §8, §9, §10, §11

[4] = system: human gastric cancer cell line (MCG804); assay: MTT in vitro tumor cell inhibition; format: cell-based; conditions: 3 days
Excerpt: as §5, §6, §7, §8, §9, §10, §11

[5] = system: human glioma cell line (U251); assay: MTT in vitro tumor cell inhibition; format: cell-based; conditions: 3 days; for Inhibitory rate, sensitivity class: U251, 10^−6 g/ml
Excerpt: as §5, §6, §7, §8, §9, §10, §11

[6] = system: human hepatoma cell line (HepG2); assay: MTT in vitro tumor cell inhibition; format: cell-based; conditions: 3 days
Excerpt: as §5, §6, §7, §8, §9, §10, §11

[7] = system: human lung cancer cell line (PC84045); assay: MTT in vitro tumor cell inhibition; format: cell-based; conditions: 3 days
Excerpt: as §5, §6, §7, §8, §9, §10, §11

Row | SMILES | HPV 6/11 virus detection, in words (HPV 6/11 Virus) | HPV 6/11 Virus (HPV 6/11 Virus) | HPV16/18 virus detection, in words (HPV16/18) | HPV16/18 (HPV16/18) | Inhibitory rate % ([1]; 10^−4 g/ml) | Inhibitory rate, sensitivity class ([1]; 10^−6 g/ml) | Inhibitory rate % ([2]; 10^−4 g/ml) | Inhibitory rate, sensitivity class ([2]; 10^−6 g/ml) | Inhibitory rate % ([3]; 10^−4 g/ml) | Inhibitory rate % ([3]; 10^−5 g/ml) | Inhibitory rate, sensitivity class ([3]; 10^−6 g/ml) | Inhibitory rate % ([4]; MCG804, 10^−4 g/ml) | Inhibitory rate % ([4]; MCG804, 10^−5 g/ml) | Inhibitory rate, sensitivity class ([4]; MCG804, 10^−6 g/ml) | Inhibitory rate % ([5]; U251, 10^−4 g/ml) | Inhibitory rate % ([5]; U251, 10^−5 g/ml) | Inhibitory rate, sensitivity class [5] | Inhibitory rate % ([6]; HepG2, 10^−4 g/ml) | Inhibitory rate, sensitivity class ([6]; HepG2, 10^−6 g/ml) | Inhibitory rate % ([7]; PC84045, 10^−4 g/ml) | other results
1 | O=C(c1ccccc1)c1ccc(O)c(O)c1O [2,3,4-trihydroxybenzophenone] | can no longer be detected | 0 copy/ml | can no longer be detected | 0 copy/ml | 89.81% | insensitive (<30% means insensitive) | 90.02% | insensitive (<30% means insensitive) | 86.79% | 40.97% | insensitive (<30% means insensitive) | 87.14% | 62.75% | insensitive (<30% means insensitive) | 85.42% | 43.57% | insensitive (<30% means insensitive) | 93.40% | insensitive (<30% means insensitive) | 85.75% | Inhibitory rate % ([1]; 10^−5 g/ml): 34.53%; Inhibitory rate % ([2]; 10^−5 g/ml): 46.78%; Inhibitory rate % ([6]; HepG2, 10^−5 g/ml): 58.05%; Inhibitory rate % ([7]; PC84045, 10^−5 g/ml): 32.79%; Inhibitory rate, sensitivity class ([7]; PC84045, 10^−6 g/ml): insensitive (<30% means insensitive)
2 | O=C(c1cc(O)c(O)cc1O)c1ccc(O)c(O)c1O | can no longer be detected | 0 copy/ml | can no longer be detected | 0 copy/ml | 60.92% | insensitive (<30% means insensitive) | 51.19% | insensitive (<30% means insensitive) | 83.16% | 42.57% | insensitive (<30% means insensitive) | 83.48% | 72.89% | insensitive (<30% means insensitive) | 68.82% | 31.35% | insensitive (<30% means insensitive) | 85.12% | insensitive (<30% means insensitive) | 82.49% | Inhibitory rate, sensitivity class ([1]; 10^−5 g/ml): insensitive (<30% means insensitive); Inhibitory rate, sensitivity class ([2]; 10^−5 g/ml): insensitive (<30% means insensitive); Inhibitory rate % ([6]; HepG2, 10^−5 g/ml): 51.57%; Inhibitory rate % ([7]; PC84045, 10^−5 g/ml): 70.97%; Inhibitory rate % ([7]; PC84045, 10^−6 g/ml): 49.70%
3 | O=C(c1ccc(O)cc1O)c1ccc(O)cc1O [2,4,2′,4′-tetrahydroxybenzophenone] | can no longer be detected | 0 copy/ml | can no longer be detected | 0 copy/ml | 31.05% | insensitive (<30% means insensitive) | 53.29% | insensitive (<30% means insensitive) | 46.70% | – | insensitive (<30% means insensitive) | 38.95% | – | insensitive (<30% means insensitive) | – | – | – | 74.85% | insensitive (<30% means insensitive) | 53.40% | Inhibitory rate, sensitivity class ([1]; 10^−5 g/ml): insensitive (<30% means insensitive); Inhibitory rate, sensitivity class ([2]; 10^−5 g/ml): insensitive (<30% means insensitive); Inhibitory rate, sensitivity class ([3]; 10^−5 g/ml): insensitive (<30% means insensitive); Inhibitory rate, sensitivity class ([4]; MCG804, 10^−5 g/ml): insensitive (<30% means insensitive); Inhibitory rate, sensitivity class ([6]; HepG2, 10^−5 g/ml): insensitive (<30% means insensitive); Inhibitory rate, sensitivity class ([7]; PC84045, 10^−5 g/ml): insensitive (<30% means insensitive); Inhibitory rate, sensitivity class ([7]; PC84045, 10^−6 g/ml): insensitive (<30% means insensitive)
4 | O=C(c1ccc(O)c(O)c1O)c1ccc(O)c(O)c1O [2,3,4,2′,3′,4′-hexahydroxybenzophenone] | can no longer be detected | 0 copy/ml | can no longer be detected | 0 copy/ml | 61.12% | insensitive (<30% means insensitive) | – | insensitive (<30% means insensitive) | 85.63% | 42.79% | insensitive (<30% means insensitive) | 80.93% | 30.12% | insensitive (<30% means insensitive) | 83.26% | 30.87% | insensitive (<30% means insensitive) | 86.15% | insensitive (<30% means insensitive) | 84.60% | Inhibitory rate, sensitivity class ([1]; 10^−5 g/ml): insensitive (<30% means insensitive); Inhibitory rate, sensitivity class ([2]; 10^−4 g/ml): insensitive (<30% means insensitive); Inhibitory rate, sensitivity class ([2]; 10^−5 g/ml): insensitive (<30% means insensitive); Inhibitory rate % ([6]; HepG2, 10^−5 g/ml): 75.54%; Inhibitory rate % ([7]; PC84045, 10^−5 g/ml): 72.34%; Inhibitory rate, sensitivity class ([7]; PC84045, 10^−6 g/ml): insensitive (<30% means insensitive)
